Assay results from patent US10660335B2, “Plant disease control agent” (SDS BIOTECH K.K., priority 2011, dated 2020).

Tests used:
Type in all cases: cell-based
Pyricularia oryzae = conditions: Concentration 10 ppm; colony diameter vs control, 25° C., second day to seventh day
Botrytis cinerea = assay: In vitro antimicrobial activity, mycelial growth on potato dextrose agar medium; conditions: Concentration 10 ppm
Rhizoctonia solani = assay: as above; conditions: Concentration 10 ppm

For “iso-C16 bacillomycin D [Comparative compound]”, the “Growth inhibition ratio (%) Pyricularia oryzae” value (Pyricularia oryzae) was 35%, the “Growth inhibition ratio (%) Botrytis cinerea” value (Botrytis cinerea) was 39% and the “Growth inhibition ratio (%) Rhizoctonia solani” value (Rhizoctonia solani) was 9%.
